Data taken from publication PMC7413254 (Nature Communications, 2020).
Read-outs that look alike come from different tables or passages of the source.

Assays:
[1] = system: non-expressing oocytes; assay: cells; format: cell-based, Xenopus laevis; details: Xenopus laevis, total [3H]CQ transport; for inhibition at 500 µM: [test solute] = 0.5 mM; for inhibition at 1000 µM: [test solute] = 1 mM; for inhibition at 2000 µM: [test solute] = 2 mM
Method in brief: (§1)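 PfCRT-expressing and control oocytes: ND96 pH 5.5 → 1.5 h at 27.5 °C → ice-cold ND96 wash → 10% SDS lysis → scintillation count.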

[2] = target: T1, PfCRT^Dd2 (Plasmodium falciparum, UniProt Q9N623, A220S/I356T/K76T/M74I/N326S/N75E/Q271E/R371I); assay: [3H]CQ uptake into Xenopus oocytes, cis-inhibition by unlabelled solute; format: cell-based
Method in brief: as §1

[3] = target: T2, PfCRT^Ecu1110 (Plasmodium falciparum, UniProt Q9N623, A220S/I356L/K76T/N326D); assay: as above; format: cell-based
Method in brief: as §1

[4] = system: PfCRT; assay: Influx of VF-6 via PfCRT into the oocyte, solutes tested as potential co-substrates; format: cell-based, Plasmodium falciparum; set-up: key: X: Compounds that have been tested as potential co-substrates but are not required for influx of VF-6 via PfCRT into the oocyte; details: X marks the solute
[5] = target: T3, PfCRT^3D7 (Plasmodium falciparum, UniProt Q8IBZ9); assay: cell-based; format: cell-based; details: total [3H]CQ transport; for inhibition at 500 µM: [test solute] = 0.5 mM; for inhibition at 1000 µM: [test solute] = 1 mM; for inhibition at 2000 µM: [test solute] = 2 mM
Method in brief: as §1

[6] = system: non-expressing oocytes; format: cell-based, Xenopus laevis; details: total [3H]CQ transport; for Uptake of [3H]CQ (% non-expressing oocyte control), trans-stimulation: non-expressing oocytes, normalised to the oocyte type control; for Uptake of [3H]CQ (% PfCRTDd2 control), trans-stimulation, non-expressing oocytes: mean ± SEM, SEM
Method in brief: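 Oocytes (ten per treatment, ≥4 independent frogs/days) were preloaded by injecting VF-6 in 25 nL ND96 at pH 5.0, 5.5, 6.0 or 7.0, or Na^+-free choline buffer, then uptake run 1.5 h, 27.5 °C, ND96 pH 5.5 by default. Internal concentrations assumed ~400 nL oocyte volume.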

[7] = target: T4, PfNT1 (Plasmodium falciparum, UniProt Q8IDM6); assay: cell-based; format: cell-based; details: for activity at 5000 µM: total [3H]CQ transport
T4 construct: expressed in transfected cells; host or cells: Xenopus laevis oocytes (stage V-VI), cRNA-injected
Method in brief: (§2)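 Transport measured in Xenopus oocytes expressing the transporters, 1.5 h at 27.5 °C in ND96 pH 5.5 unless noted. For trans-stimulation, VF-6 injected in 25 nL ND96 at pH 5.0–7.0 or Na^+-free (choline) buffer; intracellular levels based on ~400 nL oocyte volume. Ten oocytes per treatment, ≥4 experiments.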

[8] = target: T1, PfCRT^Dd2; assay: cell-based; format: cell-based; details: […]; for activity at 45000 µM: [test solute]i = 45 mM (30 mM for some solutes due to solubility)
Method in brief: as §2

[9] = target: T3, PfCRT^3D7; assay: cell-based; format: cell-based
Method in brief: as §2

[10] = target: T2, PfCRT^Ecu1110; assay: cell-based; format: cell-based; details: […]
Method in brief: as §2

[11] = system: PfCRT; assay: Test of solutes as potential co-substrates for influx of VF-6 via PfCRT into the oocyte; format: cell-based, Plasmodium falciparum; set-up: key: X: Compounds that have been tested as potential co-substrates but are not required for influx of VF-6 via PfCRT into the oocyte; details: X = tested
[12] = Oocyte, mean ± SEM, SEM, read-out: Uptake of [3H]CQ (% PfCRTDd2 control), cis-inhibition, non-expressing oocytes
[13] = non-expressing oocytes, normalised to the oocyte type control, read-out: Uptake of [3H]CQ (% non-expressing oocyte control), cis-inhibition
[14] = read-out: PfCRT-mediated [3H]CQ transport, cis-inhibition (% PfCRTDd2 control)
[15] = read-out: Uptake of [3H]CQ (% PfCRTDd2 control), cis-inhibition
[16] = read-out: Uptake of [3H]CQ (% PfCRTDd2 control), cis-inhibition, PfCRTDd2, SEM
[17] = read-out: [3H]CQ transport (% PfCRTDd2 control), cis-inhibition, PfCRTDd2, SEM
[18] = read-out: PfCRT-mediated [3H]CQ transport, cis-inhibition (% PfCRTEcu1110 control)
[19] = read-out: Uptake of [3H]CQ (% PfCRTDd2 control), cis-inhibition, PfCRTEcu1110, SEM
[20] = read-out: Uptake of [3H]CQ (% PfCRTEcu1110 control), cis-inhibition
[21] = read-out: [3H]CQ transport (% PfCRTEcu1110 control), cis-inhibition, PfCRTEcu1110, SEM
[22] = PfCRT3D7 oocytes, normalised to the oocyte type control, read-out: Uptake of [3H]CQ (% PfCRT3D7 control), cis-inhibition
[23] = mean ± SEM, SEM, read-out: Uptake of [3H]CQ (% PfCRTDd2 control), cis-inhibition, PfCRT3D7

T2 sequence (Q9N623 whole entry A220S/I356L/K76T/N326D): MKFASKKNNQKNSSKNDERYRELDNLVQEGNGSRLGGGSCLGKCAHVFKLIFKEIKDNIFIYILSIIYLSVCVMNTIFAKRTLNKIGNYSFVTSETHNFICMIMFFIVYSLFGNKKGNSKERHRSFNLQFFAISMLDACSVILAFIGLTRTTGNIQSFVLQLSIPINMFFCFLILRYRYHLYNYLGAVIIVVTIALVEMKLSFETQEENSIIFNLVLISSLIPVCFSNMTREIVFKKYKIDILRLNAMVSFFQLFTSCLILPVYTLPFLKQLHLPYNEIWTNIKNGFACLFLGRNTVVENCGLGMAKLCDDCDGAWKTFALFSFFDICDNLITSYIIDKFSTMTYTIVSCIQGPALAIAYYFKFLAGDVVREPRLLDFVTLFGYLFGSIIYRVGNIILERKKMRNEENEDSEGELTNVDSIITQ
T4 sequence (Q8IDM6 whole entry): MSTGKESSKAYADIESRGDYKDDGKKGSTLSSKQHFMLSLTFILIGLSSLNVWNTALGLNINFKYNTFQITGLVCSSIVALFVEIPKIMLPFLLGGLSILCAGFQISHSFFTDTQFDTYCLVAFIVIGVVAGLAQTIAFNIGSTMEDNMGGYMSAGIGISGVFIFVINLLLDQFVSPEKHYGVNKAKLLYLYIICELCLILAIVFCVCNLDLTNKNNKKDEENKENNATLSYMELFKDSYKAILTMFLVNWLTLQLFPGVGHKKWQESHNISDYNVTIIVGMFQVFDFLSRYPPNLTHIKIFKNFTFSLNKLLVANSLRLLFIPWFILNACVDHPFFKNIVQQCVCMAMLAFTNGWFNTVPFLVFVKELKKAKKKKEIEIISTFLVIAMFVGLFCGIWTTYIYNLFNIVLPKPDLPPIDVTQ
T1 sequence (Q9N623 whole entry A220S/I356T/K76T/M74I/N326S/N75E/Q271E/R371I): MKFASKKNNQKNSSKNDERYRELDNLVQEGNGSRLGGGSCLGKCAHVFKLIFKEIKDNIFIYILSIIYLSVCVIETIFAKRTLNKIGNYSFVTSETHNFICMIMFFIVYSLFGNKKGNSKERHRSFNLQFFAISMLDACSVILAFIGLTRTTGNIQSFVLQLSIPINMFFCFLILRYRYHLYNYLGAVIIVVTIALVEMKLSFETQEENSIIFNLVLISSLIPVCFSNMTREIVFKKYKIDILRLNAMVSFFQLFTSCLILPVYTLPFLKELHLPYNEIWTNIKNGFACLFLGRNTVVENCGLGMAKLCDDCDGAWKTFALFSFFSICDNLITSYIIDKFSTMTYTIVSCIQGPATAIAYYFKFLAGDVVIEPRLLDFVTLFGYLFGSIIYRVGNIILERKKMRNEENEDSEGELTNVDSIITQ
T3 sequence (Q8IBZ9 59-398): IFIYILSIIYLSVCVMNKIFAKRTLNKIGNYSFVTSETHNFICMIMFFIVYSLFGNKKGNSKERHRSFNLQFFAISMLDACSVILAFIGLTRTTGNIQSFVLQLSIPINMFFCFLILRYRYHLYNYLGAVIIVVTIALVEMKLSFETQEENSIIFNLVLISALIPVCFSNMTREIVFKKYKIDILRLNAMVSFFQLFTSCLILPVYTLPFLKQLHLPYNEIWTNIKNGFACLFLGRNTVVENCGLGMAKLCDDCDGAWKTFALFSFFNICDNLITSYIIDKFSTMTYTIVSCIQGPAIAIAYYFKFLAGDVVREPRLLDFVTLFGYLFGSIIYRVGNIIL

CC(C)[C@H](N)C(=O)O [L-valine]
inhibition at 500 µM [1, 12]: 2.7 ± 0.05%
inhibition at 1000 µM [1, 12]: 2.5 ± 0.04%
inhibition at 2000 µM [1, 12]: 2.8 ± 0.07%
inhibition at 500 µM [1, 13]: 100 ± 4.8%
inhibition at 1000 µM [1, 13]: 101 ± 6.2%
inhibition at 2000 µM [1, 13]: 99 ± 6.2%
inhibition at 500 µM [2, 14]: 98 ± 3.6%
inhibition at 1000 µM [2, 14]: 98 ± 4.6%
inhibition at 2000 µM [2, 14]: 93 ± 4.1%
inhibition at 500 µM [2, 15]: 100 ± 2.6%
inhibition at 1000 µM [2, 15]: 100 ± 2.2%
inhibition at 500 µM [2, 16]: 100 ± 2.6%
inhibition at 1000 µM [2, 16]: 100 ± 2.2%
inhibition at 2000 µM [2, 16]: 95 ± 1.4%
inhibition at 500 µM [2, 17]: 98 ± 3.6%
inhibition at 1000 µM [2, 17]: 98 ± 4.6%
inhibition at 500 µM [3, 18]: 98 ± 2.5%
inhibition at 1000 µM [3, 18]: 95 ± 2.6%
inhibition at 2000 µM [3, 18]: 94 ± 2.5%
inhibition at 500 µM [3, 19]: 33 ± 1%
inhibition at 1000 µM [3, 19]: 32 ± 1.3%
inhibition at 2000 µM [3, 19]: 31 ± 1.6%
inhibition at 500 µM [3, 20]: 100 ± 1.5%
inhibition at 1000 µM [3, 20]: 97 ± 1.7%
inhibition at 2000 µM [3, 20]: 96 ± 1.5%
inhibition at 500 µM [3, 21]: 30 ± 0.6%
inhibition at 1000 µM [3, 21]: 29 ± 1.4%
inhibition at 2000 µM [3, 21]: 28 ± 0.4%
Compounds that have been tested as potential co-substrates but are not required for influx of VF-6 via PfCRT into the oocyte [4]: X
inhibition at 500 µM [5, 22]: 99 ± 3.6%
inhibition at 1000 µM [5, 22]: 99 ± 3.9%
inhibition at 2000 µM [5, 22]: 100 ± 5.5%
inhibition at 500 µM [5, 23]: 3.1 ± 0.07%
inhibition at 1000 µM [5, 23]: 3.4 ± 0.01%
inhibition at 2000 µM [5, 23]: 3.4 ± 0.04%
Uptake of [3H]CQ (% non-expressing oocyte control), trans-stimulation ([6]; [test solute]i = 5 mM): 99 ± 4.1 % non-expressing oocyte control
Uptake of [3H]CQ (% non-expressing oocyte control), trans-stimulation ([6]; [test solute]i = 45 mM (30 mM for some solutes due to solubility)): 100 ± 2.6 % non-expressing oocyte control
Uptake of [3H]CQ (% PfCRTDd2 control), trans-stimulation, non-expressing oocytes ([6]; [test solute]i = 5 mM (intracellular)): 2.6 ± 0.08 % PfCRTDd2 control
Uptake of [3H]CQ (% PfCRTDd2 control), trans-stimulation, non-expressing oocytes ([6]; [test solute]i = 45 mM (intracellular; 30 mM for some solutes due to solubility)): 2.7 ± 0.03 % PfCRTDd2 control
activity at 5000 µM ([7]; PfNT1 oocytes, [test solute]i = 5 mM, normalised to the oocyte type control, read-out: Uptake of [3H]CQ (% PfNT1 control), trans-stimulation): 99 ± 2.9%
activity at 45000 µM ([7]; SEM, read-out: Uptake of [3H]CQ (% PfCRTDd2 control), trans-stimulation, PfNT1): 2.9 ± 0.04%
activity at 45000 µM ([7]; read-out: Uptake of [3H]CQ (% PfNT1 control), trans-stimulation): 100 ± 3.2%
activity at 5000 µM ([7]; [test solute]i = 5 mM (intracellular), mean ± SEM, SEM, read-out: Uptake of [3H]CQ (% PfCRTDd2 control), trans-stimulation, PfNT1): 2.7 ± 0.01%
activity at 5000 µM ([8]; pH 5.5, read-out: PfCRT-mediated [3H]CQ transport, trans-stimulation (% PfCRTDd2 control), [test solute]i = 5 mM (intracellular), PfCRTDd2 oocytes, normalised to oocyte type control): 97 ± 4.2%
activity at 5000 µM ([8]; pH 5.5, read-out: Uptake of [3H]CQ (% PfCRTDd2 control), trans-stimulation, PfCRTDd2, total [3H]CQ transport, [test solute]i = 5 mM (intracellular), mean ± SEM, SEM): 99 ± 3.2%
activity at 5000 µM ([8]; pH 5.5, read-out: Uptake of [3H]CQ (% PfCRTDd2 control), trans-stimulation, PfCRTDd2 oocytes, [test solute]i = 5 mM, total [3H]CQ transport, normalised to the oocyte type control): 99 ± 3.2%
activity at 45000 µM ([8]; pH 5.5, read-out: Uptake of [3H]CQ (% PfCRTDd2 control), trans-stimulation, PfCRTDd2 oocytes, total [3H]CQ transport, normalised to the oocyte type control): 97 ± 1.1%
activity at 5000 µM ([8]; pH 5.5, read-out: [3H]CQ transport (% PfCRTDd2 control), trans-stimulation, PfCRTDd2, trans-stimulation, [test solute]i = 5 mM (injected), PfCRT-mediated component (background subtracted), mean ± SEM, SEM): 97 ± 4.2%
activity at 45000 µM ([8]; pH 5.5, read-out: [3H]CQ transport (% PfCRTDd2 control), trans-stimulation, PfCRTDd2, trans-stimulation, PfCRT-mediated component (background subtracted), mean ± SEM, SEM): 95 ± 2.5%
activity at 5000 µM ([9]; PfCRT3D7 oocytes, [test solute]i = 5 mM, total [3H]CQ transport, normalised to the oocyte type control, read-out: Uptake of [3H]CQ (% PfCRT3D7 control), trans-stimulation): 98 ± 4.2%
[3H]CQ transport (% PfCRT3D7 control), trans-stimulation, PfCRT3D7 ([9]; SEM): 0.3 ± 0.01 % PfCRT3D7 control
activity at 5000 µM ([9]; [test solute]i = 5 mM (intracellular), PfCRT3D7 oocytes, normalised to oocyte type control, read-out: PfCRT-mediated [3H]CQ transport, trans-stimulation (% PfCRT3D7 control)): 96 ± 3.3%
activity at 45000 µM ([9]; SEM, read-out: Uptake of [3H]CQ (% PfCRTDd2 control), trans-stimulation, PfCRT3D7): 3.3 ± 0.01%
activity at 45000 µM ([9]; read-out: PfCRT-mediated [3H]CQ transport, trans-stimulation (% PfCRT3D7 control)): 96 ± 2.4%
activity at 45000 µM ([9]; read-out: Uptake of [3H]CQ (% PfCRT3D7 control), trans-stimulation): 98 ± 3.7%
activity at 5000 µM ([9]; total [3H]CQ transport, [test solute]i = 5 mM (intracellular), mean ± SEM, SEM, read-out: Uptake of [3H]CQ (% PfCRTDd2 control), trans-stimulation, PfCRT3D7): 3.3 ± 0.05%
activity at 5000 µM ([10]; pH 5.5, read-out: PfCRT-mediated [3H]CQ transport, trans-stimulation (% PfCRTEcu1110 control), [test solute]i = 5 mM (intracellular), PfCRTEcu1110 oocytes, normalised to oocyte type control): 96 ± 3.3%
activity at 5000 µM ([10]; pH 5.5, read-out: Uptake of [3H]CQ (% PfCRTEcu1110 control), trans-stimulation, PfCRTEcu1110 oocytes, [test solute]i = 5 mM, total [3H]CQ transport, normalised to the oocyte type control): 98 ± 3.6%
activity at 45000 µM ([10]; pH 5.5, read-out: Uptake of [3H]CQ (% PfCRTEcu1110 control), trans-stimulation, PfCRTEcu1110 oocytes, [test solute]i = 45 mM (30 mM for some solutes due to solubility), total [3H]CQ transport, normalised to the oocyte type control): 100 ± 2.5%
activity at 5000 µM ([10]; read-out: Uptake of [3H]CQ (% PfCRTDd2 control), trans-stimulation, PfCRTEcu1110, total [3H]CQ transport, [test solute]i = 5 mM (intracellular), mean ± SEM, SEM): 35 ± 1.6%
activity at 45000 µM ([10]; read-out: Uptake of [3H]CQ (% PfCRTDd2 control), trans-stimulation, PfCRTEcu1110, total [3H]CQ transport, [test solute]i = 45 mM (intracellular; 30 mM for some solutes due to solubility), mean ± SEM, SEM): 36 ± 1.4%
Tested as potential co-substrate but not required for influx of VF-6 via PfCRT into the oocyte [11]: X
